Test results from ChEMBL document CHEMBL1201862, “PubChem BioAssay data set” (2004).
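Step 1: Grow cells in 96-well plates. Step 2: Expose to compound for 48 hours at 5 concentrations. Step 3: Interpolate endpoints linearly; if unreached, use highest concentration. The concentration for 50% growth inhibition is given as GI50.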 Calls of active or inactive are those of the source. Rule as the data show it: active = GI50 up to about 1.1 µM and inactive = higher.

How the values were obtained:
Assay in all cases: NCI-60 cell line screen, 48 h
786-0 = test system: 786-0
A498 = test system: A498
A549 = test system: A549
ACHN = test system: ACHN
CAKI-1 = test system: CAKI-1
CCRF-CEM = test system: CCRF-CEM
COLO 205 = test system: COLO 205
DLD-1 = test system: DLD-1
DMS-114 = test system: DMS-114
EKVX = test system: EKVX
HCC 2998 = test system: HCC 2998
HCT-116 = test system: HCT-116
HL-60 = test system: HL-60
HOP-62 = test system: HOP-62
HOP-92 = test system: HOP-92
HT-29 = test system: HT-29
IGROV-1 = test system: IGROV-1
K562 = test system: K562
KM-20L2 = test system: KM-20L2
KM12 = test system: KM12
M14 = test system: M14
MOLT-4 = test system: MOLT-4
Malme-3M = test system: Malme-3M
NCI-H23 = test system: NCI-H23
NCI-H460 = test system: NCI-H460
NCI-H522 = test system: NCI-H522
OVCAR-3 = test system: OVCAR-3
OVCAR-4 = test system: OVCAR-4
OVCAR-5 = test system: OVCAR-5
OVCAR-8 = test system: OVCAR-8
RPMI-8226 = test system: RPMI-8226
RXF 393 = test system: RXF 393
RXF 631 = test system: RXF 631
SF-268 = test system: SF-268
SF-295 = test system: SF-295
SF-539 = test system: SF-539
SK-MEL-28 = test system: SK-MEL-28
SK-MEL-2 = test system: SK-MEL-2
SK-MEL-5 = test system: SK-MEL-5
SK-OV-3 = test system: SK-OV-3
SN12C = test system: SN12C
SNB-19 = test system: SNB-19
SR = test system: SR
SW-620 = test system: SW-620
TK-10 = test system: TK-10
UACC-257 = test system: UACC-257
UACC-62 = test system: UACC-62
UO-31 = test system: UO-31
DMS-273 = test system: DMS-273
HCT-15 = test system: HCT-15
HOP-18 = test system: HOP-18
LOX IMVI = test system: LOX IMVI
LXFL 529 = test system: LXFL 529
M19-MEL = test system: M19-MEL
NCI-H226 = test system: NCI-H226
SNB-75 = test system: SNB-75
SNB-78 = test system: SNB-78
U-251 = test system: U-251
XF498 = test system: XF498

With `C/C(=N/N(C=O)C[n+]1ccccc1)C(CN(CC(C)C)CC(C)C)C(=O)Nc1ccc(C)cc1C` (stereo unspecified) the GI50 (786-0) was > 100 µM (inactive), the GI50 (A498) was 33.1 µM (inactive) and the GI50 (A549) was > 100 µM (inactive). The GI50 (ACHN) was 94.2 µM (inactive), the GI50 (CAKI-1) was 55.1 µM (inactive) and the GI50 (CCRF-CEM) was > 100 µM (inactive). For the same molecule, the GI50 (COLO 205) was > 100 µM (inactive), the GI50 (DLD-1) was > 100 µM (inactive) and the GI50 (DMS-114) was 70.8 µM (inactive). For the same molecule, the GI50 (EKVX) was 17.8 µM (inactive), the GI50 (HCC 2998) was > 100 µM (inactive) and the GI50 (HCT-116) was > 100 µM (inactive). For the same molecule, the GI50 (HL-60) was 73.1 µM (inactive), the GI50 (HOP-62) was > 100 µM (inactive) and the GI50 (HOP-92) was 75.3 µM (inactive). For the same molecule, the GI50 (HT-29) was > 100 µM (inactive), the GI50 (IGROV-1) was > 100 µM (inactive) and the GI50 (K562) was > 100 µM (inactive). For the same molecule, the GI50 (KM-20L2) was > 100 µM (inactive), the GI50 (KM12) was 84.1 µM (inactive) and the GI50 (M14) was > 100 µM (inactive). For the same molecule, the GI50 (MOLT-4) was > 100 µM (inactive), the GI50 (Malme-3M) was > 100 µM (inactive) and the GI50 (NCI-H23) was > 100 µM (inactive). The GI50 (NCI-H460) was > 100 µM (inactive), the GI50 (NCI-H522) was > 100 µM (inactive) and the GI50 (OVCAR-3) was > 100 µM (inactive). The GI50 (OVCAR-4) was > 100 µM (inactive), the GI50 (OVCAR-5) was 63.1 µM (inactive) and the GI50 (OVCAR-8) was > 100 µM (inactive). The GI50 (RPMI-8226) was > 100 µM (inactive), the GI50 (RXF 393) was 42.9 µM (inactive) and the GI50 (RXF 631) was > 100 µM (inactive). For the same molecule, the GI50 (SF-268) was 43 µM (inactive), the GI50 (SF-295) was 71.8 µM (inactive) and the GI50 (SF-539) was > 100 µM (inactive). The GI50 (SK-MEL-28) was > 100 µM (inactive), the GI50 (SK-MEL-2) was > 100 µM (inactive) and the GI50 (SK-MEL-5) was 57.1 µM (inactive). The GI50 (SK-OV-3) was > 100 µM (inactive), the GI50 (SN12C) was > 100 µM (inactive) and the GI50 (SNB-19) was 67.9 µM (inactive). The GI50 (SR) was 84.1 µM (inactive), the GI50 (SW-620) was > 100 µM (inactive) and the GI50 (TK-10) was 42.4 µM (inactive). The GI50 (UACC-257) was > 100 µM (inactive), the GI50 (UACC-62) was 79.6 µM (inactive) and the GI50 (UO-31) was 25.8 µM (inactive).
With `COc1ccc(C(=O)N/N=C/c2c(C)n(C)n(-c3ccccc3)c2=O)cc1` the GI50 (786-0) was > 100 µM (inactive), the GI50 (A498) was > 100 µM (inactive) and the GI50 (A549) was > 100 µM (inactive). For the same molecule, the GI50 (ACHN) was > 100 µM (inactive), the GI50 (CCRF-CEM) was > 100 µM (inactive) and the GI50 (COLO 205) was > 100 µM (inactive). For the same molecule, the GI50 (DLD-1) was > 100 µM (inactive), the GI50 (DMS-114) was > 100 µM (inactive) and the GI50 (DMS-273) was > 100 µM (inactive). The GI50 (EKVX) was > 100 µM (inactive), the GI50 (HCC 2998) was > 100 µM (inactive) and the GI50 (HCT-116) was > 100 µM (inactive). For the same molecule, the GI50 (HCT-15) was over 100 µM, the GI50 (HL-60) was > 100 µM (inactive) and the GI50 (HOP-18) was > 100 µM (inactive). For the same molecule, the GI50 (HOP-62) was > 100 µM (inactive), the GI50 (HOP-92) was > 100 µM (inactive) and the GI50 (HT-29) was > 100 µM (inactive). The GI50 (IGROV-1) was > 100 µM (inactive), the GI50 (K562) was > 100 µM (inactive) and the GI50 (KM-20L2) was > 100 µM (inactive). The GI50 (KM12) was > 100 µM (inactive), the GI50 (LOX IMVI) was > 100 µM (inactive) and the GI50 (LXFL 529) was > 100 µM (inactive). The GI50 (M14) was > 100 µM (inactive), the GI50 (M19-MEL) was > 100 µM (inactive) and the GI50 (MOLT-4) was > 100 µM (inactive). The GI50 (Malme-3M) was > 100 µM (inactive), the GI50 (NCI-H226) was > 100 µM (inactive) and the GI50 (NCI-H23) was > 100 µM (inactive). The GI50 (NCI-H460) was > 100 µM (inactive), the GI50 (NCI-H522) was > 100 µM (inactive) and the GI50 (OVCAR-3) was > 100 µM (inactive). For the same molecule, the GI50 (OVCAR-4) was > 100 µM (inactive), the GI50 (OVCAR-8) was > 100 µM (inactive) and the GI50 (RPMI-8226) was > 100 µM (inactive). The GI50 (RXF 393) was > 100 µM (inactive), the GI50 (SF-268) was > 100 µM (inactive) and the GI50 (SF-295) was > 100 µM (inactive). The GI50 (SF-539) was > 100 µM (inactive), the GI50 (SK-MEL-28) was > 100 µM (inactive) and the GI50 (SK-MEL-2) was > 100 µM (inactive). The GI50 (SK-OV-3) was > 100 µM (inactive), the GI50 (SN12C) was > 100 µM (inactive) and the GI50 (SNB-19) was > 100 µM (inactive). The GI50 (SNB-75) was > 100 µM (inactive), the GI50 (SNB-78) was > 100 µM (inactive) and the GI50 (SR) was > 100 µM (inactive). The GI50 (SW-620) was > 100 µM (inactive), the GI50 (TK-10) was > 100 µM (inactive) and the GI50 (U-251) was > 100 µM (inactive). For the same molecule, the GI50 (UACC-257) was > 100 µM (inactive), the GI50 (UACC-62) was > 100 µM (inactive) and the GI50 (UO-31) was > 100 µM (inactive). For the same molecule, the GI50 (XF498) was > 100 µM (inactive).
With `CCC12C=CCN3CCC4(C(=C(C(=O)OC)[C@@H]1O)Nc1ccccc14)C32` (stereo partly specified) the GI50 (786-0) was 1.64 µM (inactive), the GI50 (A498) was 1.96 µM (inactive) and the GI50 (A549) was 2.09 µM (inactive). For the same molecule, the GI50 (ACHN) was 1.56 µM (inactive), the GI50 (CAKI-1) was 2.29 µM (inactive) and the GI50 (CCRF-CEM) was 1.76 µM (inactive). The GI50 (COLO 205) was 1.81 µM (inactive), the GI50 (DLD-1) was 1.67 µM (inactive) and the GI50 (DMS-114) was 1.69 µM (inactive). The GI50 (DMS-273) was 1.69 µM (inactive), the GI50 (EKVX) was 1.85 µM (inactive) and the GI50 (HCC 2998) was 1.63 µM (inactive). The GI50 (HCT-116) was 1.57 µM (inactive), the GI50 (HCT-15) was 1.57 µM and the GI50 (HL-60) was 2 µM (inactive). For the same molecule, the GI50 (HOP-18) was 1.71 µM (inactive), the GI50 (HOP-62) was 2.12 µM (inactive) and the GI50 (HOP-92) was 1.6 µM (inactive). The GI50 (HT-29) was 1.98 µM (inactive), the GI50 (IGROV-1) was 1.83 µM (inactive) and the GI50 (K562) was 2.03 µM (inactive). The GI50 (KM-20L2) was 1.84 µM (inactive), the GI50 (KM12) was 1.7 µM (inactive) and the GI50 (LOX IMVI) was 1.64 µM (inactive). For the same molecule, the GI50 (LXFL 529) was 1.66 µM (inactive), the GI50 (M14) was 2.2 µM (inactive) and the GI50 (M19-MEL) was 1.74 µM (inactive). The GI50 (MOLT-4) was 2.43 µM (inactive), the GI50 (Malme-3M) was 1.74 µM (inactive) and the GI50 (NCI-H226) was 1.26 µM (inactive). For the same molecule, the GI50 (NCI-H23) was 1.85 µM (inactive), the GI50 (NCI-H460) was 1.87 µM (inactive) and the GI50 (NCI-H522) was 1.61 µM (inactive). The GI50 (OVCAR-3) was 1.99 µM (inactive), the GI50 (OVCAR-4) was 2.12 µM (inactive) and the GI50 (OVCAR-5) was 2.44 µM (inactive). The GI50 (OVCAR-8) was 2.04 µM (inactive), the GI50 (RPMI-8226) was 2.17 µM (inactive) and the GI50 (RXF 393) was 1.36 µM (inactive). For the same molecule, the GI50 (SF-268) was 2.29 µM (inactive), the GI50 (SF-295) was 2.05 µM (inactive) and the GI50 (SF-539) was 2.07 µM (inactive). For the same molecule, the GI50 (SK-MEL-28) was 1.95 µM (inactive), the GI50 (SK-MEL-2) was 1.9 µM (inactive) and the GI50 (SK-MEL-5) was 1.79 µM (inactive). The GI50 (SK-OV-3) was 2.43 µM (inactive), the GI50 (SN12C) was 2.3 µM (inactive) and the GI50 (SNB-19) was 1.91 µM (inactive). The GI50 (SNB-75) was 1.9 µM (inactive), the GI50 (SNB-78) was 2.8 µM (inactive) and the GI50 (SR) was 1.78 µM (inactive). The GI50 (SW-620) was 1.72 µM (inactive), the GI50 (TK-10) was 2.24 µM (inactive) and the GI50 (U-251) was 2.24 µM (inactive). The GI50 (UACC-257) was 1.1 µM (active), the GI50 (UACC-62) was 1.77 µM (inactive) and the GI50 (UO-31) was 2.4 µM (inactive). For the same molecule, the GI50 (XF498) was 1.63 µM (inactive).
